Among the data in ChEMBL document CHEMBL3244165, “Improved synthesis and in vitro antiviral activities of 5-cyanouridine and 5-cyano-2'-deoxyuridine” (J Med Chem, 1977) are ID50 values, retold here.

The experiment relates to Vaccinia virus. The experiment is described as follows: Antiviral activity against Vaccinia virus infected in human skin fibroblasts assessed as inhibition of virus-induced cytopathogenicity. It counts as functional, Orthopoxvirus vaccinia. Background: Cytopathic effects are the visible damage that an infection or toxin causes in cultured cells.

The structures appear in SMILES notation. Bounds are passed on as bounds.

As to `N#Cc1cn([C@@H]2O[C@H](CO)[C@@H](O)[C@H]2O)c(=O)[nH]c1=O`, the ID50 is greater than 7 ×10⁻⁴ M.

Turning to `N#Cc1cn([C@H]2C[C@H](O)[C@@H](CO)O2)c(=O)[nH]c1=O`, the ID50 is 2.7 ×10⁻⁵ M.

With `O=c1[nH]c(=O)n([C@H]2C[C@H](O)[C@@H](CO)O2)cc1Br` [BROXURIDINE], the ID50 is 6.5 ×10⁻⁷ M.

Regarding `O=c1[nH]c(=O)n([C@H]2C[C@H](O)[C@@H](CO)O2)cc1Cl` [CHLORODEOXYURIDINE], the ID50 is 1.5 ×10⁻⁶ M.

As to `O=c1[nH]c(=O)n([C@H]2C[C@H](O)[C@@H](CO)O2)cc1F` [FLOXURIDINE], the ID50 was determined as 4 ×10⁻⁷ M.

Take `O=c1[nH]c(=O)n([C@H]2C[C@H](O)[C@@H](CO)O2)cc1I` [IDOXURIDINE]: the ID50 was found to be 1.1 ×10⁻⁶ M.

Regarding `O=c1[nH]c(=O)n([C@H]2C[C@H](O)[C@@H](CO)O2)cc1C(F)(F)F` [TRIFLURIDINE], the ID50 amounted to 1.3 ×10⁻⁶ M.

Consider `Nc1ncnc2c1ncn2[C@@H]1O[C@H](CO)[C@@H](O)[C@@H]1O` [VIDARABINE], for which the ID50 is 2.6 ×10⁻⁵ M.
